Results published in ChEMBL document CHEMBL4177744, “Discovery of novel scaffolds for γ-secretase modulators without an arylimidazole moiety” (Bioorg Med Chem, 2018).
pIC50: −log10 of the molar value.

How the values were obtained:
[1] = target: T1, CYP3A4 (Homo sapiens, UniProt P08684); test: Inhibition of CYP3A4 in human liver microsomes assessed as residual activity at 5 uM using midazolam as substrate preincubated for 30 mins followed by substrate addition measured after 20 mins in presence of NADPH by LC-MS/MS analysis relative to control; format: ADME; details: probe midazolam, read-out: Activity
[2] = target: T1, CYP3A4; test: Inhibition of CYP3A4 in human liver microsomes assessed as residual activity at 5 uM using midazolam as substrate after 20 mins in presence of NADPH by LC-MS/MS analysis relative to control; format: ADME; details: probe midazolam, read-out: Activity
[3] = target: Gamma-secretase; test: Modulatory activity against gamma-secretase in human SK-N-BE(2) cells assessed as reduction in amyloid beta 42 production after 6 hrs by sandwich ELISA; format: cell-based
[4] = Intrinsic clearance in CD-1 mouse liver microsomes assessed per mg protein at 0.2 uM by LC-MS/MS analysis; format: ADME, microsome; details: read-out: CLH
[5] = Brain to plasma partition coefficient, Kp in ddY mouse at 30 mg/kg, ip after 1 hr by LC-MS/MS analysis; format: ADME, organism-based
[6] = Drug uptake in ddY mouse plasma at 30 mg/kg, ip after 1 hr by LC-MS/MS analysis; format: ADME, organism-based
[7] = Drug uptake in ddY mouse plasma at 30 mg/kg, ip after 3 hrs by LC-MS/MS analysis; format: ADME, organism-based
[8] = Drug uptake in ddY mouse brain at 30 mg/kg, ip after 1 hr by LC-MS/MS analysis; format: ADME, organism-based; details: in vivo
[9] = […], Kp in ddY mouse brain at 30 mg/kg, ip after 3 hrs by LC-MS/MS analysis; format: ADME, organism-based; details: BLD = below limit of detection
[10] = Brain to plasma partition coefficient, Kp in ddY mouse at 30 mg/kg, po after 3 hrs by LC-MS/MS analysis; format: ADME, organism-based
[11] = Drug uptake in ddY mouse plasma at 30 mg/kg, po after 1 hr by LC-MS/MS analysis; format: ADME, organism-based
[12] = Drug uptake in ddY mouse brain at 30 mg/kg, po after 1 hr by LC-MS/MS analysis; format: ADME, organism-based; details: in vivo
[13] = Drug uptake in ddY mouse plasma at 30 mg/kg, po after 3 hrs by LC-MS/MS analysis; format: ADME, organism-based
[14] = Drug uptake in ddY mouse brain at 30 mg/kg, po after 3 hrs by LC-MS/MS analysis; format: ADME, organism-based; details: in vivo
[15] = Brain to plasma partition coefficient, Kp in ddY mouse at 30 mg/kg, po after 1 hr by LC-MS/MS analysis; format: ADME, organism-based

T1 sequence (P08684 whole entry): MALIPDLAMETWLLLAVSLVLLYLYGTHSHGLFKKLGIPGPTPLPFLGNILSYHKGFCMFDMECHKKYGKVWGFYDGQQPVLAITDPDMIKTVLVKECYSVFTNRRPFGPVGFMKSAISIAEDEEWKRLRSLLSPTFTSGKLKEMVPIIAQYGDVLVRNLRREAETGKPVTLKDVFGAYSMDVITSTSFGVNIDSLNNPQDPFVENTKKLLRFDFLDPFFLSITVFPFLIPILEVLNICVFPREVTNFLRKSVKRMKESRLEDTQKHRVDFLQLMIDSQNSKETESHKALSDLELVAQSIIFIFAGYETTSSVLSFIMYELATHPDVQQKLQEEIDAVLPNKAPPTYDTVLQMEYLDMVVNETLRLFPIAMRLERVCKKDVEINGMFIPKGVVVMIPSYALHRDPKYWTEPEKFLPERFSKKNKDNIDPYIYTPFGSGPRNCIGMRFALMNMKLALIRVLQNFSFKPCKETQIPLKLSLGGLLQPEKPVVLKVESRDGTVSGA

pIC50 [3]	microsomal CLint at 0.2 µM [4] [µL/min/mg]	Compound	further results
–	–	COc1cc(/C=C2\CCCN([C@@H](C)c3ccc(F)cc3)C2=O)ccc1-n1cnc(C)c1	activity at 20 min, 5 µM [1]: 29%; activity at 20 min, 5 µM [2]: 40%
5.06	> 1000	CCCCN1CCC(c2c(C)nc3c(OCc4ccccc4C)cccn23)CC1	–
5.01	–	Cc1ccccc1COc1cccn2c(C3CCN(C)CC3)c(C)nc12	–
< 4.30	–	Cc1nc2c(OCc3ccccc3)cccn2c1CN(C)CCN(C)C	–
5.64	–	CCNC(=O)c1ccc(-c2c(C)nc3c(OCc4ccccc4C)cccn23)cc1	–
5.24	–	Cc1nc2c(OCc3ccccc3)cccn2c1C1CCN(C2CCCCC2)CC1	–
6.16	> 1000	CCCC(=O)N1CCC(c2c(C)nc3c(OCc4ccccc4C)cccn23)CC1.Cl	Kp at 1 h [5]: 1; concentration at 1 h [6]: 700 nM; concentration at 3 h [7]: 9.4 nM; Drug uptake [8]: 0.71 nmol/g; Kp [9]: Bld
< 4.30	628	CCCCc1ccc(-c2c(C)nc3c(OCc4ccccc4C)cccn23)cc1	–
5.74	–	CCOC(=O)c1ccc(-c2c(C)nc3c(OCc4ccccc4C)cccn23)cc1	–
5.89	–	CCOC(=O)N1CCC(c2c(C)nc3c(OCc4ccccc4C)cccn23)CC1	–
5.15	–	Cc1ccccc1COc1cccn2c(-c3ccncc3)c(C)nc12	–
6.41	611	CCN1Cc2cc(-c3c(C)nc4c(OCc5ccccc5C)cccn34)ccc2C1=O.Cl	Kp at 3 h [10]: 0.72; concentration at 1 h [11]: 2500 nM; Drug uptake [12]: 1.9 nmol/g; activity at 20 min, 5 µM [1]: 87%; concentration at 3 h [13]: 960 nM; Drug uptake [14]: 0.69 nmol/g; activity at 20 min, 5 µM [2]: 85%; Kp at 1 h [15]: 0.72
< 5.00	–	CCN(C)C(=O)c1ccc(-c2c(C)nc3c(OCc4ccccc4C)cccn23)cc1	–
